Test results published in patent US11780839B2, “Compounds for treating Huntington's disease” (PTC THERAPEUTICS, INC., priority 2018, dated 2023).

What follows are compounds tested on Endogenous Huntingtin Protein (assay: Endogenous Huntingtin Protein Assay (ELISA-based Meso Scale Discovery electrochemiluminescence)). Conditions: MSD electrochemiluminescence, Table 1.
Assay type: cell-based
Method in brief: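 Huntingtin was captured overnight at 4 °C on plates coated with 1 μg/mL MW1 (polyQ-expanded) or MAB2166 antibody and BSA-blocked. Detection used a rabbit monoclonal and then a SULFO-TAG goat anti-rabbit antibody (0.25 μg/mL, 1 h each, room temperature). Signal was read by electrochemiluminescence.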

Structure (SMILES) | IC50 [nM]
CN1CCC2(CC1)CN(c1ncc(-c3ccc(-c4c[nH]nc4F)cc3O)nn1)C2 [Cpd 149, 5-(3-fluoro-1H-pyrazol-4-yl)-2-[3-(7-methyl-2,7-diazaspiro[3.5]nonan-2-yl)-1,2,4-triazin-6-yl]phenol] | ≤ 100
CN(c1ncc(-c2ccc(-c3ccn4nncc4c3)cc2O)nn1)C1CC(C)(C)NC(C)(C)C1 [Cpd 152, 2-{3-[methyl(2,2,6,6-tetramethylpiperidin-4-yl)amino]-1,2,4-triazin-6-yl}-5-([1,2,3]triazolo[1,5-a]pyridin-5-yl)phenol] | ≤ 100
CN(c1ncc(-c2ccc(-c3ccn4nnnc4c3)cc2O)nn1)C1CC(C)(C)NC(C)(C)C1 [Cpd 155, 2-{3-[methyl(2,2,6,6-tetramethylpiperidin-4-yl)amino]-1,2,4-triazin-6-yl}-5-(tetrazolo[1,5-a]pyridin-7-yl)phenol] | ≤ 100
CN(c1ncc(-c2ccc(-c3n[nH]cc3F)cc2O)nn1)C1CC(C)(C)NC(C)(C)C1 [Cpd 156, 5-(4-fluoro-1H-pyrazol-3-yl)-2-{3-[methyl(2,2,6,6-tetramethylpiperidin-4-yl)amino]-1,2,4-triazin-6-yl}phenol] | ≤ 100
CN(c1ncc(-c2ccc(-c3cnc4[nH]ccc4n3)cc2O)nn1)C1CC(C)(C)NC(C)(C)C1 [Cpd 158, 2-{3-[methyl(2,2,6,6-tetramethylpiperidin-4-yl)amino]-1,2,4-triazin-6-yl}-5-(5H-pyrrolo[2,3-b]pyrazin-2-yl)phenol] | 1000 to 3000
CN(c1ncc(-c2ccc(-n3cc(CO)cn3)cc2O)nn1)C1CC(C)(C)NC(C)(C)C1 [Cpd 161, 5-[4-(hydroxymethyl)-1H-pyrazol-1-yl]-2-{3-[methyl(2,2,6,6-tetramethylpiperidin-4-yl)amino]-1,2,4-triazin-6-yl}phenol] | ≤ 100
CN(c1ncc(-c2ccc(-c3ccc4ncn(C)c4n3)cc2O)nn1)C1CC(C)(C)NC(C)(C)C1 [Cpd 163, 5-(3-methyl-3H-imidazo[4,5-b]pyridin-5-yl)-2-{3-[methyl(2,2,6,6-tetramethylpiperidin-4-yl)amino]-1,2,4-triazin-6-yl}phenol] | 1000 to 3000
CN(c1ncc(-c2ccc(-c3ccc4c(ncn4C)n3)cc2O)nn1)C1CC(C)(C)NC(C)(C)C1 [Cpd 164, 5-(1-methyl-1H-imidazo[4,5-b]pyridin-5-yl)-2-{3-[methyl(2,2,6,6-tetramethylpiperidin-4-yl)amino]-1,2,4-triazin-6-yl}phenol] | 100 to 500
CN1CCC2CN(c3ncc(-c4ccc(-c5cn[nH]c5)cc4O)nn3)CC2C1 (centres unmarked) [Cpd 166, 2-[3-(5-methyloctahydro-2H-pyrrolo[3,4-c]pyridin-2-yl)-1,2,4-triazin-6-yl]-5-(1H-pyrazol-4-yl)phenol] | ≤ 100
Cc1cc(-c2ccc(-c3cnc(N(C)C4CC(C)(C)NC(C)(C)C4)nn3)c(O)c2)nc(O)c1N [Cpd 168, 3-amino-6-(3-hydroxy-4-{3-[methyl(2,2,6,6-tetramethylpiperidin-4-yl)amino]-1,2,4-triazin-6-yl}phenyl)-4-methylpyridin-2-ol] | 100 to 500
Cc1nc2c(C)cc(-c3ccc(-c4cnc(N(C)C5CC(C)(C)NC(C)(C)C5)nn4)c(O)c3)nc2o1 [Cpd 169, 5-(2,7-dimethyl[1,3]oxazolo[5,4-b]pyridin-5-yl)-2-{3-[methyl(2,2,6,6-tetramethylpiperidin-4-yl)amino]-1,2,4-triazin-6-yl}phenol] | ≤ 100
CN(c1ncc(-c2ccc(-n3ncc(CO)n3)cc2O)nn1)C1CC(C)(C)NC(C)(C)C1 [Cpd 172, 5-[4-(hydroxymethyl)-2H-1,2,3-triazol-2-yl]-2-{3-[methyl(2,2,6,6-tetramethylpiperidin-4-yl)amino]-1,2,4-triazin-6-yl}phenol] | ≤ 100
CN(c1ncc(-c2ccc(-c3ccc4nnn(C)c4n3)cc2O)nn1)C1CC(C)(C)NC(C)(C)C1 [Cpd 173] | ≤ 100
CN(c1ncc(-c2ccc(-c3cnc4c(cnn4C)c3)cc2O)nn1)C1CC(C)(C)NC(C)(C)C1 [Cpd 176, 5-(1-methyl-1H-pyrazolo[3,4-b]pyridin-5-yl)-2-{3-[methyl(2,2,6,6-tetramethylpiperidin-4-yl)amino]-1,2,4-triazin-6-yl}phenol] | ≤ 100
CN(c1ncc(-c2ccc(-c3ccc4c(cnn4C)c3)cc2O)nn1)C1CC(C)(C)NC(C)(C)C1 [Cpd 177, 5-(1-methyl-1H-indazol-5-yl)-2-{3-[methyl(2,2,6,6-tetramethylpiperidin-4-yl)amino]-1,2,4-triazin-6-yl}phenol] | ≤ 100
CN(c1ncc(-c2ccc(-c3ccc4nnnn4n3)cc2O)nn1)C1CC(C)(C)NC(C)(C)C1 [Cpd 178, 2-{3-[methyl(2,2,6,6-tetramethylpiperidin-4-yl)amino]-1,2,4-triazin-6-yl}-5-(tetrazolo[1,5-b]pyridazin-6-yl)phenol] | ≤ 100
CN(c1ncc(-c2ccc(-c3cc(CO)ncn3)cc2O)nn1)C1CC(C)(C)NC(C)(C)C1 [Cpd 179, 5-[6-(hydroxymethyl)pyrimidin-4-yl]-2-{3-[methyl(2,2,6,6-tetramethylpiperidin-4-yl)amino]-1,2,4-triazin-6-yl}phenol] | ≤ 100
Oc1cc(-c2cn[nH]c2)ccc1-c1cnc(N2CCC3(CCCNC3)CC2)nn1 [Cpd 180, 2-[3-(2,9-diazaspiro[5.5]undecan-9-yl)-1,2,4-triazin-6-yl]-5-(1H-pyrazol-4-yl)phenol] | 1000 to 3000
CN1CCCC2(CCN(c3ncc(-c4ccc(-c5cn[nH]c5)cc4O)nn3)CC2)C1 [Cpd 182, 2-[3-(2-methyl-2,9-diazaspiro[5.5]undecan-9-yl)-1,2,4-triazin-6-yl]-5-(1H-pyrazol-4-yl)phenol] | > 500

Now from value to compound:

IC50 [nM] | Structure (SMILES)
≤ 100 | CC(C)NC1CCN(c2ncc(-c3ccc(-c4cn[nH]c4)cc3O)nn2)C1 (centres unmarked) [Cpd 148, 2-(3-{3-[(propan-2-yl)amino]pyrrolidin-1-yl}-1,2,4-triazin-6-yl)-5-(1H-pyrazol-4-yl)phenol]
≤ 100 | Oc1cc(-c2c[nH]nc2F)ccc1-c1cnc(N2CC[C@H]3NCC[C@H]3C2)nn1 [Cpd 150, 5-(3-fluoro-1H-pyrazol-4-yl)-2-{3-[(3aS,7aR)-octahydro-5H-pyrrolo[3,2-c]pyridin-5-yl]-1,2,4-triazin-6-yl}phenol]
≤ 100 | Oc1cc(-c2c[nH]nc2F)ccc1-c1cnc(N2CC3(CCNCC3)C2)nn1 [Cpd 151, 2-[3-(2,7-diazaspiro[3.5]nonan-2-yl)-1,2,4-triazin-6-yl]-5-(3-fluoro-1H-pyrazol-4-yl)phenol]
100 to 500 | CN1CC[C@H]2CN(c3ncc(-c4ccc(-c5c[nH]nc5F)cc4O)nn3)CC[C@H]21 [Cpd 153, 5-(3-fluoro-1H-pyrazol-4-yl)-2-{3-[(3aS,7aR)-1-methyloctahydro-5H-pyrrolo[3,2-c]pyridin-5-yl]-1,2,4-triazin-6-yl}phenol]
≤ 100 | CCC(C)(C)NC1CCN(c2ncc(-c3ccc(-c4cn[nH]c4)cc3O)nn2)C1 (centres unmarked) [Cpd 154, 2-(3-{3-[(2-methylbutan-2-yl)amino]pyrrolidin-1-yl}-1,2,4-triazin-6-yl)-5-(1H-pyrazol-4-yl)phenol]
100 to 500 | Oc1cc(-c2cn[nH]c2)ccc1-c1cnc(N2CCC(NC34CC5CC(CC(C5)C3)C4)C2)nn1 (centres unmarked) [Cpd 157, 2-(3-{3-[(adamantan-1-yl)amino]pyrrolidin-1-yl}-1,2,4-triazin-6-yl)-5-(1H-pyrazol-4-yl)phenol]
1000 to 3000 | Oc1cc(-c2cn[nH]c2)ccc1-c1cnc(N2CCC(NC3C4CC5CC(C4)CC3C5)C2)nn1 (centres unmarked) [Cpd 159, 2-(3-{3-[(adamantan-2-yl)amino]pyrrolidin-1-yl}-1,2,4-triazin-6-yl)-5-(1H-pyrazol-4-yl)phenol]
1000 to 3000 | CC12CC3CC(C)(C1)CC(NC1CCN(c4ncc(-c5ccc(-c6cn[nH]c6)cc5O)nn4)C1)(C3)C2 (centres unmarked) [Cpd 160, 2-(3-{3-[(3,5-dimethyladamantan-1-yl)amino]pyrrolidin-1-yl}-1,2,4-triazin-6-yl)-5-(1H-pyrazol-4-yl)phenol]
100 to 500 | CN(C)[C@@H]1CC[C@@H]2CN(c3ncc(-c4ccc(-c5cn[nH]c5)cc4O)nn3)C[C@@H]21 [Cpd 162, 2-{3-[(3aR,4R,6aS)-4-(dimethylamino)hexahydrocyclopenta[c]pyrrol-2(1H)-yl]-1,2,4-triazin-6-yl}-5-(1H-pyrazol-4-yl)phenol]
≤ 100 | N[C@H]1CC[C@@H]2CN(c3ncc(-c4ccc(-c5cn[nH]c5)cc4O)nn3)C[C@@H]21 [Cpd 165, 2-{3-[(3aR,4S,6aS)-4-aminohexahydrocyclopenta[c]pyrrol-2(1H)-yl]-1,2,4-triazin-6-yl}-5-(1H-pyrazol-4-yl)phenol]
≤ 100 | CN(C)[C@H]1CC[C@@H]2CN(c3ncc(-c4ccc(-c5cn[nH]c5)cc4O)nn3)C[C@@H]21 [Cpd 167, 2-{3-[(3aR,4S,6aS)-4-(dimethylamino)hexahydrocyclopenta[c]pyrrol-2(1H)-yl]-1,2,4-triazin-6-yl}-5-(1H-pyrazol-4-yl)phenol]
≤ 100 | CCC(C)(CC)NC1CCN(c2ncc(-c3ccc(-c4cn[nH]c4)cc3O)nn2)C1 (centres unmarked) [Cpd 170, 2-(3-{3-[(3-methylpentan-3-yl)amino]pyrrolidin-1-yl}-1,2,4-triazin-6-yl)-5-(1H-pyrazol-4-yl)phenol]
≤ 100 | CC1CC(NC(C)(C)C)CN1c1ncc(-c2ccc(-c3cn[nH]c3)cc2O)nn1 (centres unmarked) [Cpd 171, 2-{3-[4-(tert-butylamino)-2-methylpyrrolidin-1-yl]-1,2,4-triazin-6-yl}-5-(1H-pyrazol-4-yl)phenol]
≤ 100 | CC(C)(C)NC1CCN(c2ncc(-c3ccc(-c4c[nH]nc4F)cc3O)nn2)C1 (centres unmarked) [Cpd 174, 2-{3-[3-(tert-butylamino)pyrrolidin-1-yl]-1,2,4-triazin-6-yl}-5-(3-fluoro-1H-pyrazol-4-yl)phenol]
1000 to 3000 | Cn1ccc(-c2ccc(-c3cnc(N4CCC(NC(C)(C)C)C4)nn3)c(O)c2)n1 (centres unmarked) [Cpd 175, 2-{3-[3-(tert-butylamino)pyrrolidin-1-yl]-1,2,4-triazin-6-yl}-5-(1-methyl-1H-pyrazol-3-yl)phenol]
> 500 | Oc1cc(-c2cn[nH]c2)ccc1-c1cnc(N2CCC3(CCNC3)CC2)nn1 [Cpd 181, 2-[3-(2,8-diazaspiro[4.5]decan-8-yl)-1,2,4-triazin-6-yl]-5-(1H-pyrazol-4-yl)phenol]
